US20100022457A1 (Bristol-Myers Squibb Company, priority 2006, published 2010)
Read-outs that look alike come from different tables or passages of the source. Where a SMILES comes first, the peptide text is derived from it. [ ]: non-standard residue; d: D form. The star is where a group is joined. ξ: configuration not given here. Ala(6-(2-MePh)pyridin-3-yl) = Cc1ccccc1-c1ccc(C[C@H](N)C(=O)O)cn1; Phe(4-(2-Et-4-HO-Ph)) = CCc1cc(O)ccc1-c1ccc(C[C@H](N)C(=O)O)cc1; Bip(2'-Et-4'-OMe) = CCc1cc(OC)ccc1-c1ccc(C[C@H](N)C(=O)O)cc1; Lactoyl(3-(imidazol-4-yl)) = O=C([C@@H](O)Cc1c[nH]cn1)*; Bip(2'-Me) = Cc1ccccc1-c1ccc(C[C@H](N)C(=O)O)cc1; d(αMePhe(2-F)) = C[C@@](N)(Cc1ccccc1F)C(=O)O; αMePhe(2-F) = C[C@](N)(Cc1ccccc1F)C(=O)O; ξαMePhe(2-F) = CC(N)(Cc1ccccc1F)C(=O)O; Thr(3ξ) = CC(O)[C@H](N)C(=O)O; ξαMeP = CC1(C(=O)O)CCCN1; Aib = CC(C)(N)C(=O)O; Moc = COC(=O)*

Legend:
[1] = test system: C57BL/6J-ob/ob mice; test: Intraperitoneal glucose tolerance test (ipGTT) in ob/ob mice after subcutaneous injection; type: in vivo, mouse; settings: for Potency in ob/ob mice ED50: sc injection, plasma glucose AUC in ipGTT; for effect on postprandial plasma glucose: sc in ob/ob mice, between 0 and 180 or 210 minutes
Procedure: Peptides were dissolved in an appropriate vehicle at a concentration in nmol/ml equivalent to the dose that was to be administered in nmol/kg so that each mouse would receive the same volume/weight of dosing solution. Male C57BL/6J-ob/ob mice (10 weeks old) were randomized into groups of 6 mice per group based on fed plasma glucose and body weight. After an overnight fast, mice were weighed and placed in the experimental lab. After 30 min in the environment, the mice were bled via tail tip at −30 min and immediately injected subcutaneously (sc) with vehicle or the peptide dissolved in vehicle (0.1 ml solution/100 g body weight). At time 0 the mice were bled and then injected intraperitoneally with 50% glucose (2 g/kg) to initiate the intraperitoneal glucose tolerance test (ipGTT). The mice were bled 30, 60, 120 and 180 min after the glucose injection. Blood samples were drawn into potassium EDTA, placed on ice during the study and subsequently centrifuged for 10 min at 3000 rpm at 4° C. Plasma samples were diluted 1-fold for glucose analysis in the Cobas System. Another 5 μl plasma sample was diluted 5-fold with 20 μl of Sample Diluent (Insulin ELISA assay kit, Crystal Chem Inc.) and stored at −20° C. for subsequent analysis using the Ultra Sensitive Mouse Insulin ELISA kit (Crystal Chem Inc.).

[2] = Exposure during ipGTT in ob/ob mice; type: in vivo, mouse; settings: sc
[3] = Dog pharmacokinetic study (intravenous and subcutaneous, 67 μg/kg); type: in vivo; settings: for half-life: read-out: t½ (converted)
Procedure: The pharmacokinetic parameters of the compound of SEQ ID NO:9 were determined in male beagle dogs (n=4, 14±1 kg). Following an overnight fast, each animal received the compound of SEQ ID NO:9 either as an intravenous bolus via femoral vein (67 μg/kg) or by subcutaneous injection given at near the shoulder blades (67 μg/kg). Each animal received both intravenous and subcutaneous doses with a one-week washout between doses following a crossover design. […] Serial blood samples were collected in EDTA-containing microcentrifuge tubes at predose, 0.083, 0.25, 0.5, 0.75, 1, 2, 4, 6, 8, 24, and 30 hours post-dose after intravenous administration; at predose, 0.25, 0.5, 0.75, 1, 2, 4, 6, 8, 24, and 30 hours post-dose after subcutaneous administration. Approximately 0.3 mL of blood was collected at each time point. Blood samples were immediately centrifuged at 4° C. The obtained plasma was frozen with dry ice and stored at −20° C. Plasma drug levels were determined using the LC-MS/MS assay described above.
Plasma samples from in vivo dog study were prepared for analysis by precipitating plasma proteins with two volumes of acetonitrile containing an internal standard. The samples were vortex mixed and removed the precipitated proteins by centrifugation. The resulting supernatants were transferred to a 96-well plate and 10 μL were injected for analysis. Samples were prepared with the Packard Multiprobe II and Quadra 96 Liquid Handling System.
The HPLC system consisted of two Shimadzu LC10AD pumps (Columbia, Md.), a CTC PAL autosampler (Leap Technologies, Switzerland). The column used was a YMC Hydrosphere C18 (2.0×50 mm, 3 μm) (YMC, Inc., Milford, Mass.). The column temperature was maintained at 50° C. and the flow rate was 0.3 mL/minute. The mobile phase A consisted of 10 mM ammonium formate and 0.1% formic acid in water and mobile phase B consisted of 0.1% formic acid in acetonitrile. The initial mobile phase composition was 5% B, and remained at 5% B for one minute to equilibrate the column. The composition was ramped to 95% B over two minutes and held there for one additional minute. The mobile phase was then returned to initial conditions in one minute. Total analysis time was five minutes. A switching valve was used. The eluents between 0-1 minute were diverted to the waste.
The HPLC was interfaced to a Sciex API 4000 mass spectrometer, (Applied Biosystems, Foster City, Calif.) and was equipped with a TurboIonspray ionization source. Ultra high purity nitrogen was used as the nebulizing and turbo gas. The temperature of turbo gas was set at 300° C. and the interface heater was set at 60° C. Data acquisition utilized selected reaction monitoring (SRM). Ions representing the (M+2H)^2+ species for the compound of SEQ ID NO:9, and (M+2H)^2+ for BMS-501143 (IS) were selected in Q1 and were collisionally dissociated with high purity nitrogen at a pressure of 3.5×10^−3 torr to form specific product ions which were subsequently monitored by Q3.
The standard curve concentrations, ranging from 1 to 1000 nM and from 4 to 5000 nM, were used for the in vivo samples obtained from low and high doses, respectively. The curves were fitted with a quadratic regression weighted by reciprocal […]. Standards were analyzed in duplicate. Quality control (QC) samples, prepared in blank matrix at the same concentrations as the standard were also analyzed in each analytical set. For the compound of SEQ ID NO:9, the calculated concentrations of more than 80% of the QCs were within 20% of nominal concentration, indicating acceptable assay performance.
The compound of SEQ ID NO:9 plasma concentration vs. time data were analyzed by noncompartmental methods using the […]™ software program. The Cmax and Tmax values were recorded directly from experimental observations. The AUC0-n and AUCtot values were calculated using a combination of linear and log trapezoidal summations. […]

[4] = Table I, vehicle propylene glycol/pH 7.4 phosphate buffer (1:1)
[5] = Table II, vehicle propylene glycol/pH 7.4 phosphate buffer (1:1)
[6] = Table I, vehicle 0.2 M Tris buffer (pH 8.0)
[7] = male, beagle, plasma, 67 ug/kg, dog, intravenous 67 μg/kg, Tables 6B/6C, vehicle not given
[8] = male, beagle, plasma, sc, 67 ug/kg, dog, subcutaneous 67 μg/kg, Tables 6B/6C (Table I footnote: 0.2 M Tris buffer pH 8.0)

| Exposure/dose during ipGTT in ob/ob mice [2] | Exposure in dogs (sc@67 μg/kg) [3, 4] | Exposure in dogs (sc@67 μg/kg) [3, 5] | Exposure in dogs (sc@67 μg/kg) [3, 6] | Structure (SMILES) | Potency in ob/ob mice ED50 [1] | effect on postprandial plasma glucose [1] | further results |
| --- | --- | --- | --- | --- | --- | --- | --- |
| 22 nM*h/nmol/kg | 0.089 µM·h | 0.089 µM·h | – | CCc1cc(OC)ccc1-c1ccc(C[C@H](NC(=O)[C@H](CC(=O)O)NC(=O)[C@H](CO)NC(=O)[C@@H](NC(=O)[C@@](C)(Cc2ccccc2F)NC(=O)[C@@H](NC(=O)CNC(=O)[C@H](CCC(=O)O)NC(=O)C(C)(C)NC(=O)[C@@H](N)Cc2c[nH]cn2)C(C)O)C(C)O)C(=O)N[C@@H](Cc2ccc(-c3ccccc3C)cc2)C(N)=O)cc1 (stereo partly shown) [Compound I, reference compound] (H-H[Aib]EG[Thr(3ξ)][d(αMePhe(2-F))][Thr(3ξ)]SD[Bip(2'-Et-4'-OMe)][Bip(2'-Me)]-NH2) | 50 nmol/kg | – | Potency in ob/ob mice: % AUC Reduction in Plasma Glucose in an IP Glucose Tolerance Test after SC Injection of Compound ([1]; 10 nmol/kg sc, relative to vehicle-treated group): −15% (p = 0.247, NS) |
| 4.4 nM*h/nmol/kg | 4.02 µM·h | – | – | CCc1cc(OC)ccc1-c1ccc(C[C@H](NC(=O)[C@H](CC(=O)O)NC(=O)[C@H](CO)NC(=O)[C@@H](NC(=O)C(C)(Cc2ccccc2F)NC(=O)[C@@H](NC(=O)CNC(=O)[C@H](CCC(=O)O)NC(=O)C2(C)CCCN2C(=O)[C@@H](N)Cc2c[nH]cn2)[C@@H](C)O)[C@@H](C)O)C(=O)N[C@@H](Cc2ccc(-c3ccccc3C)nc2)C(N)=O)cc1 (stereo partly shown) [SEQ ID NO: 118] (H-H[ξαMeP]EGT[ξαMePhe(2-F)]TSD[Bip(2'-Et-4'-OMe)][Ala(6-(2-MePh)pyridin-3-yl)]-NH2) | 2.5 nmol/kg | statistically significant decrease | plasma glucose AUC decrease ([1]; 30 nmol/kg sc, ipGTT ob/ob mice): 81% |
| – | – | 0.94 µM·h | – | CCc1cc(OC)ccc1-c1ccc(C[C@H](NC(=O)[C@H](CC(=O)O)NC(=O)[C@H](CO)NC(=O)[C@@H](NC(=O)[C@](C)(Cc2ccccc2F)NC(=O)[C@@H](NC(=O)CNC(=O)[C@H](CCC(=O)O)NC(=O)[C@@H](C)NC(=O)[C@@H](N)Cc2c[nH]cn2)[C@@H](C)O)[C@@H](C)O)C(=O)N[C@@H](Cc2ccc(-c3ccccc3C)nc2)C(N)=O)cc1 [SEQ ID NO: 149] (H-H[dA]EGT[αMePhe(2-F)]TSD[Bip(2'-Et-4'-OMe)][Ala(6-(2-MePh)pyridin-3-yl)]-NH2) | – | – | – |
| 16 nM*h/nmol/kg | – | – | 1.566 µM·h | CCc1cc(OC)ccc1-c1ccc(C[C@H](NC(=O)[C@H](CC(=O)O)NC(=O)[C@H](Cc2c[nH]cn2)NC(=O)[C@@H](NC(=O)C(C)(Cc2ccccc2F)NC(=O)[C@@H](NC(=O)CNC(=O)[C@H](CCC(=O)O)NC(=O)C2(C)CCCN2C(=O)[C@@H](O)Cc2c[nH]cn2)[C@@H](C)O)[C@@H](C)O)C(=O)N[C@@H](Cc2ccc(-c3ccccc3C)nc2)C(N)=O)cc1 (stereo partly shown) [SEQ ID NO: 151] ({Lactoyl(3-(imidazol-4-yl))}-[ξαMeP]EGT[ξαMePhe(2-F)]THD[Bip(2'-Et-4'-OMe)][Ala(6-(2-MePh)pyridin-3-yl)]-NH2) | – | statistically significant decrease | AUC [3, 7]: 1.52 ± 0.424 µM·h; MRT [3, 7]: 4.4 ± 0.1 h; clearance ([3]; male, beagle, plasma, 67 ug/kg, dog, intravenous 67 μg/kg, Tables 6B/6C, vehicle not given, read-out: CLp): 0.49 ± 0.16 mL/min/kg; Vd ([3]; male, beagle, plasma, 67 ug/kg, dog, intravenous 67 μg/kg, Tables 6B/6C, vehicle not given, read-out: Vss): 0.13 ± 0.05 L/kg; half-life [3, 7]: 4 ± 0.2 h; AUC [3, 8]: 1.57 ± 0.235 µM·h; MRT [3, 8]: 5.8 ± 1 h; Tmax [3, 8]: 1.8 ± 0.5 h; bioavailability [3, 8]: 110 ± 41%; Cmax ([3]; male, beagle, plasma, sc, 67 ug/kg, dog, subcutaneous 67 μg/kg, Tables 6B/6C (Table I footnote: 0.2 M Tris buffer pH 8.0), read-out: Cmax): 252 ± 15 nM; half-life [3, 8]: 4.4 ± 1.4 h |
| 11 nM*h/nmol/kg | – | – | 1.467 µM·h | CCc1cc(O)ccc1-c1ccc(C[C@H](NC(=O)[C@H](CC(=O)O)NC(=O)[C@H](CO)NC(=O)[C@@H](NC(=O)C(C)(Cc2ccccc2F)NC(=O)[C@@H](NC(=O)CNC(=O)[C@H](CCC(=O)O)NC(=O)C2(C)CCCN2C(=O)[C@H](Cc2c[nH]cn2)NC(=O)OC)[C@@H](C)O)[C@@H](C)O)C(=O)N[C@@H](Cc2ccc(-c3ccccc3C)nc2)C(N)=O)cc1 (stereo partly shown) [SEQ ID NO: 158] (Moc-H[ξαMeP]EGT[ξαMePhe(2-F)]TSD[Phe(4-(2-Et-4-HO-Ph))][Ala(6-(2-MePh)pyridin-3-yl)]-NH2) | – | statistically significant decrease | – |
